System: not listed separately
Test: clearance in vivo
Settings: plasma

clearance	SMILES
70 mL/min/kg	CCOC(=O)c1cnc2c(OC)cccc2c1-c1cnc(-c2ccccc2OC)c(OC)c1 [15h]

System: not listed separately
Test: stability under cell-based assay conditions
Format: physicochemical
Settings: cell buffer

stability of the ester under cell-based assay conditions	SMILES
stable	CCOC(=O)c1cnc2c(OC)cccc2c1N1CCN(c2ccccc2OC)CC1 [compound 8]

Target: rat mGlu7 (Rattus norvegicus, UniProt P35400)
Test: calcium mobilization assay with rat mGlu7/Gα15/HEK cells
Format: cell-based
Settings: not given

Sequence of rat mGlu7 (P35400 35-915): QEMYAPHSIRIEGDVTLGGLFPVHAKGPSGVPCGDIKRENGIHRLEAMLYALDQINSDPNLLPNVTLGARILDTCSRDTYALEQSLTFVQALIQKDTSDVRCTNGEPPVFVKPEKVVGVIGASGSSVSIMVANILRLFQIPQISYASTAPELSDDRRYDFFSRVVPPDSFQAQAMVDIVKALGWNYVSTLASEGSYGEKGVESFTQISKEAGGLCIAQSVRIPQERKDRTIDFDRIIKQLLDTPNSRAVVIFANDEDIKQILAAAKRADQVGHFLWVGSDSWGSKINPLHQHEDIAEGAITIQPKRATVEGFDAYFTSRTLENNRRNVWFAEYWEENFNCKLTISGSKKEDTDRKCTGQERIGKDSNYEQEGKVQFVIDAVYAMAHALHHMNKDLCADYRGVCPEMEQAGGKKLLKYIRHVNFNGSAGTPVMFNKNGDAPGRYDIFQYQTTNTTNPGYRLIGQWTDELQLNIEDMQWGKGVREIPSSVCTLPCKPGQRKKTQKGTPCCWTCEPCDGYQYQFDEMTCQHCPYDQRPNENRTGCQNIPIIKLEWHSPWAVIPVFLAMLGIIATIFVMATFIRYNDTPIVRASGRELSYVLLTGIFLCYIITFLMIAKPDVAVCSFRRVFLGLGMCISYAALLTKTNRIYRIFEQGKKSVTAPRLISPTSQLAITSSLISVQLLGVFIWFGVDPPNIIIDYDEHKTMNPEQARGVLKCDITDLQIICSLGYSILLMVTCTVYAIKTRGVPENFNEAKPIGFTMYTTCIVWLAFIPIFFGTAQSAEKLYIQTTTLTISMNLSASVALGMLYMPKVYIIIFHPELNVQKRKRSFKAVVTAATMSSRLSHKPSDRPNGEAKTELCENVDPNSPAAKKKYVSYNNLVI

mGlu7 NAM activity in words	fold loss of mGlu7 NAM potency relative to 8	SMILES
lost activity	–	CCOC(=O)c1cnc2c(OC)cccc2c1N1CCN(c2ccccc2Cl)CC1 [11d]
lost activity	–	CCOC(=O)c1cnc2c(OC)cccc2c1N1CCN(c2ccccc2C)CC1 [11e]
lost activity	–	CCOC(=O)c1cnc2c(OC)cccc2c1N1CCN(c2ccccc2C#N)CC1 [11f]
lost activity	–	CCOC(=O)c1cnc2c(OC)cccc2c1N1CCN(c2ccccc2F)CC1 [11h]
retained mGlu7 NAM potency	–	CCOC(=O)c1cnc2c(OC)cccc2c1N1CCN(c2ccc(OC)cc2OC)CC1 [11i]
retained mGlu7 NAM potency	–	CCOC(=O)c1cnc2c(OC)cccc2c1N1CCN(c2c(OC)cccc2OC)CC1 [11j]
modest potency	–	CCOC(=O)c1cnc2c(OC)cccc2c1N1CCN(c2cccnc2OC)CC1 [11l]
modest potency	–	CCOC(=O)c1cnc2c(OC)cccc2c1N1CCN(c2nccnc2OC)CC1 [11m]
–	~ 6.5 fold	CCOC(=O)c1cnccc1N1CCN(c2ccccc2OC)CC1 [13a]
–	~ 6.5 fold	CCOC(=O)c1cnc2ccsc2c1N1CCN(c2ccccc2OC)CC1 [13b]
–	~ 6.5 fold	CCOC(=O)c1cnc2sccc2c1N1CCN(c2ccccc2OC)CC1 [13c]
inactive	–	CCOC(=O)c1ccc2c(OC)cccc2c1N1CCN(c2ccccc2OC)CC1 [13d]
equipotent to 8	–	CCOC(=O)c1cnc2c(OC)cc(OC)cc2c1N1CCN(c2ccccc2OC)CC1 [13f]
–	~ 2 fold	CCOC(=O)c1cnc2c(OC)cccc2c1N1CCN(c2ccccc2OC)C(C)C1 (stereo not drawn) [14a]
–	~ 2 fold	CCOC(=O)c1cnc2c(OC)cccc2c1N1CCN(c2ccccc2OC)CC1C (stereo not drawn) [14b]
–	~ 6 fold	CCOC(=O)c1cnc2c(OC)cccc2c1N(C)CCN(C)c1ccccc1OC [14c]
inactive	–	CCOC(=O)c1cnc2c(OC)cccc2c1C1CC2CC(C1)N2c1ccccc1OC (stereo not drawn) [14g]
not productive	–	CCOC(=O)c1cnc2c(OC)cccc2c1N1CC2(CN(c3ccccc3OC)C2)C1 [14i]
competent surrogate	–	CCOC(=O)c1cnc2c(OC)cccc2c1-c1ccn(Cc2ccccc2OC)c1 [15j]
sub-micromolar	–	CCOC(=O)c1cnc2c(OC)cc(OC)cc2c1-c1ccc(-c2ccccc2OC)nc1 [compound 18]
sub-micromolar	–	CCOC(=O)c1cnc2c(OC)cc(OC)cc2c1-c1ccc(-c2ccccc2OCC)nc1 [compound 19]

SMILES	mGlu7 NAM activity in words	fold loss of mGlu7 NAM potency relative to 8
CCOC(=O)c1cnc2c(OC)cccc2c1C1C2CC1CN(c1ccccc1OC)C2 (stereo not drawn) [14f]	inactive	–
